Laboratory results: patent US20090149554A1, “WATER-SOLUBLE METAL ALCOHOLATE DERIVATIVES, PRODUCTION METHODS THEREOF, AND SOLID GELATINOUS EXTERNAL PREPARATIONS CONTAINING THE SAME” (SHISEIDO CO., LTD., priority 2005, published 2009)
Where two headings read alike, the source gives them in different places.

Key:
[1] = Gel formation on mixing the product with the same amount of water; assay type: physicochemical
Experimental: . Then, the mixture was mixed with stirring at room temperature for 48 hours. After the solid catalyst was separated by filtration, ethanol and acetonitrile were distilled away under reduced pressure, and 4.0 g of transparent viscous liquid was obtained.

[2] = Gelation ability in aqueous solution (visual); assay type: physicochemical; conditions: room temperature
Experimental: (§1) In order to investigate the gelation ability of the above-described polyhydric alcohol substituted silane derivatives in water, the present inventors visually evaluated the progress of gelation for the 1,3-butylene glycol substituted compound and glycerin substituted compound.
(§2) The gelation ability was evaluated by adding the polyhydric alcohol substituted silane derivative to water or KGM medium to obtain various concentrations, mixing and stirring at room temperature, allowing the solution to stand still, and visually observing the gelation.

[3] = Solubility of polyhydric alcohol substituted silane derivatives in various solvents; assay type: physicochemical; conditions: summary of Table 1
Experimental: Subsequently, the present inventors evaluated the solubility of the thus obtained polyhydric alcohol substituted silane derivatives in various solvents.
The evaluation of solubility was conducted by adding a polyhydric alcohol substituted silane derivative into various solvents so that the concentration would be 5 weight %, mixing and stirring at room temperature, allowing them to stand still, and visually observing the solution state. The evaluation criteria were as follows.

[4] = Gelation ability in KGM medium (visual); assay type: physicochemical; conditions: room temperature
Experimental: as §1, §2

[5] = biological target: T1, papain (Carica papaya, UniProt P00784); experiment: Stabilization of papain enzyme activity in solid gel on storage; assay type: biochemical
T1 sequence (P00784 134-345): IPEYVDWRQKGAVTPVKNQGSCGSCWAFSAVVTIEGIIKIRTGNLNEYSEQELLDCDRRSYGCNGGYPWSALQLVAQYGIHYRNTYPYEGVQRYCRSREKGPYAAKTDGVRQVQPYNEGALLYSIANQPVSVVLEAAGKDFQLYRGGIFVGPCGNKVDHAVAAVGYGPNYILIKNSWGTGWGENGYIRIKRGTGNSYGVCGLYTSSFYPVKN
Experimental: Into 1 g of water, 0.2 g of the propylene glycol substituted silane derivative, (Si—(OCH2CH2CH2OH)4), was dissolved. Into this solution, 0.2 mL of papain solution (4 μg/mL) was added and mixed, and the samples were charged on a 96-hole plate and allowed to stand for a fixed length of time. Similarly, several test samples were prepared, and they were maintained at various temperatures (0° C., 37° C., room temperature, and 50° C.). After 2 hours and after 3 days, the papain enzyme activity of each sample was measured. The enzyme activity was measured with a plate reader after the enzyme substrate, N-carbobenzoxy-phenylarginine-4-methylcoumarinamide (Z-PheArg-MCA), was directly added into the 96-hole plate and allowed to stand for 20 minutes at room temperature. In Comparative Example 5, the papain enzyme activity was measured in the same way as Example 21 except that the propylene glycol substituted silane derivative was not used.
The values of enzyme activity were standardized by setting the enzyme activity of the comparative example sample that had been stored at 0° C. for 2 hours to 100.0.

With `CC(O)CCO[Si](OCCC(C)O)(OCCC(C)O)OCCC(C)O` (stereo not drawn) [Si—(OCH2CH2CH2OHCH3)4] the “Result of mixing the product with the same amount of water” value (from here on “Result of mixing the product”) [1] was “homogeneous transparent gel”, the “Appearance (gelation)” value ([2]; 10.0 % (wt/vol)) was “Colloidal turbidity, slight thickening after about 1 week” and the “Appearance (gelation)” value ([2]; 20.0 % (wt/vol)) was “Colloidal turbidity, thickening after 2 days, translucent”. The “Appearance (gelation)” value ([2]; 30.0 % (wt/vol)) was “Colloidal turbidity, gelation after 2 days, seeping-out”, the “Solubility in other organic solvents” value [3] was “excellent solubility in other organic solvents” and the “Appearance (gelation)” value ([4]; 2.9 % (wt/vol)) was “Transparent solution, slight thickening after 2 hours, pasty”. The “Appearance (gelation)” value ([4]; 5.3 % (wt/vol)) was “Transparent solution, gelation after 1 hour, some”, the “Appearance (gelation)” value ([4]; 10.4 % (wt/vol)) was “Transparent solution, gelation after 12 minutes, some” and the “Appearance (gelation)” value ([4]; 19.6 % (wt/vol)) was “Transparent solution, gelation (ringing gel) after 2”. For the same molecule, the “Appearance (gelation)” value ([4]; 35.4 % (wt/vol)) was “Transparent solution, gelation (ringing gel) after 1 minute”.

With `OCCO[Si](OCCO)(OCCO)OCCO` [tetra(2-hydroxyethoxy)silane] the “Result of mixing the product” value ([1]; room temperature) was “homogeneous transparent gel”.

In the case of `OCC(O)CO[Si](OCC(O)CO)(OCC(O)CO)OCC(O)CO` (stereo not drawn) [Glycerin substituted silane derivative, Si—(O—CH2—CHOH—CH2—OH)4], the “Result of mixing the product” value ([1]; room temperature) is reported as “homogeneous transparent gel”, the “Appearance (gelation)” value ([2]; 10.0 % (wt/vol)) is reported as “Transparent, thickening after about 1 week, agar-like soft” and the “Appearance (gelation)” value ([2]; 20.0 % (wt/vol)) is reported as “Translucent low-viscosity gel after 1 day, some”. For the same molecule, the “Appearance (gelation)” value ([2]; 30.0 % (wt/vol)) was “Gelation after 1 day, some seeping-out ringing gel”, the “Appearance (gelation)” value ([4]; 2.5 % (wt/vol)) was “Transparent solution, slight thickening after 2 hours, pasty” and the “Appearance (gelation)” value ([4]; 5.6 % (wt/vol)) was “Transparent solution, gelation after 3 hours, some”. The “Appearance (gelation)” value ([4]; 11.0 % (wt/vol)) was “Transparent solution, gelation after 1 hour, some”, the “Appearance (gelation)” value ([4]; 21.0 % (wt/vol)) was “Transparent solution, gelation (ringing gel) after 30” and the “Appearance (gelation)” value ([4]; 35.0 % (wt/vol)) was “Transparent solution, gelation (ringing gel) after 30”.

For `OCCCO[Si](OCCCO)(OCCCO)OCCCO` [Si—(OCH2CH2CH2OH)4], the “Result of mixing the product” value ([1]; room temperature) was “homogeneous transparent gel” and the “Solubility in other organic solvents” value [3] was “excellent solubility in other organic solvents”.

B1: Comparative Example 5: papain sample prepared as Example 21 except that the propylene glycol substituted silane derivative was not used (protein, UniProt P00784 134-345, looked up)
Papain: T1 sequence (P00784 134-345)
With B1 the “Papain enzyme activity (standardized, Comparative Example 5 at 0° C. for 2 hours = 100.0)” value (from here on “Papain enzyme activity”) ([5]; After 2 hours, 0° C.) was 100.0, the “Papain enzyme activity” value ([5]; After 2 hours, 37° C.) was 98.3 and the “Papain enzyme activity” value ([5]; After 2 hours, 50° C.) was 67.1. The “Papain enzyme activity” value ([5]; After 2 hours, Room temperature) was 96.5, the “Papain enzyme activity” value ([5]; After 3 days, 0° C.) was 98.9 and the “Papain enzyme activity” value ([5]; After 3 days, 37° C.) was 18.6. For the same molecule, the “Papain enzyme activity” value ([5]; After 3 days, 50° C.) was 2.2 and the “Papain enzyme activity” value ([5]; After 3 days, Room temperature) was 34.5.
